In this test the test system is Cryptosporidium parvum. Description: MMV: Cryptosporidium parvum oocysts (Iowa Strain) were prepared for use by treatment with 10 mM HCl (37 degrees C, 10 min) followed by 2 mM sodium taurocholate in phosphate-buffered saline (PBS) with Ca2+ and Mg2+ (16 degrees C, 10 min) in order to stimulate excystation. The high-throughput screen was carried out by inoculating >90% confluent human ileocecal adenocarcinoma (HCT-8) cells (ATCC) with ~5.5 x 10^3 primed oocysts per well. Experimental compounds or DMSO (vehicle) were added three hours after infection, and cells were incubated for 48 hours. It is filed as functional.

Structures are written as SMILES.

In general, Inhibition refers to the change of the read-out against control, counted positive when it falls. For the compound `COc1cc(C(=O)Nc2nc3c(cc4c5c(cccc53)CC4)s2)cc(OC)c1OC`, the Inhibition is recorded as -26.05%.
Under `COc1ccc(-c2cc(=O)oc3c4c(ccc23)OCN(Cc2ccc(F)cc2)C4)cc1` stands -0.4054%; under `COc1ccc(CCN2CCC(CN(C)Cc3cnn(-c4ccccc4)c3)CC2)cc1`, -0.7856%.
Regarding `CCN1CCN(Cc2ccc(NC(=O)c3cc4ccc5cccnc5c4[nH]3)cc2)CC1`, the Inhibition was -49.16%.
Under `FC(F)(F)c1ccc(Nc2nnnc3ccccc23)cc1` stands -4.73%.
As for `COc1ccc(OC)c(C2C3=C(CC(C)(C)CC3=O)N(c3ccc(Cl)c(Cl)c3)C3=C2C(=O)CC(C)(C)C3)c1`, the figure is 2.896%.
As for `O=C(O)C(=O)O.Oc1ccc(Br)cc1CN1CCN(Cc2cccc(F)c2)CC1`, the figure is -34.58%.
Regarding `Cc1ccccc1OCCSc1nc2ccc(NC(=O)c3ccccc3)cc2s1`, the Inhibition was found to be 17.58%.
Under `CCN1CCN(c2c(C(=O)c3ccccc3)cnc3cc(OC)c(OC)cc23)CC1` stands -1.231%; under `CC(C)(C)CC(C)(C)NCC(O)COc1ccc(Cl)cc1Cl` (configuration not stated), 15.77%; under `CN(C)c1ccc(C(O)(c2ccc(N(C)C)cc2)c2ccc(N(C)C)cc2)cc1` [METHYLROSANILINE], 77.77%.
As for `CCOc1ccc(CN2CCN(CC(O)COc3ccc(OCC(O)CN4CCN(Cc5ccc(OCC)cc5)CC4)cc3)CC2)cc1` (configuration not stated), the figure is 1.883%; as for `CCOC(=O)c1cn(CC)c2cc(N3CCCCC3)c(F)cc2c1=O`, 6.363%.
Under `COCCNCC(O)Cn1c2ccc(Cl)cc2c2cc(Cl)ccc21` (configuration not stated) stands -20.11%; under `O=[N+]([O-])c1ccc(C=NNc2nc3ccccc3[nH]2)cc1`, -55.94%.
`CCn1nc(-c2ccc(C(=O)OC)cc2)nc2c(=O)n(C)c(=O)nc1-2`: the Inhibition is -16.23%.
As for `CN1c2ccccc2N(C)C1c1ccc2c(c1)OCO2`, the figure is -58.41%; as for `CC(C)(C)C(=O)Nc1ccc(C(=O)Nc2cccc(-c3nc4ccccc4[nH]3)c2)cc1`, 18.85%; as for `Nc1nc(Nc2cccc(F)c2)nc2ccccc12`, 22.76%.
As for `COc1ccc(-c2nonc2NC(=O)c2cccc(C)c2)cc1OC`, the figure is 4.698%; as for `O=C(Nc1ccc(Cl)cc1)N1CCN(c2ccc3nncn3n2)CC1`, 64.92%.
As for `O=C(Nc1ccc(CN2CCOCC2)cc1)c1ccc(-c2cc(Cl)ccc2Cl)o1`, the figure is 9.568%.
With `CCc1ccc(Nc2cc(C)nc3nc(C)nn23)cc1`, the Inhibition is recorded as -3.889%.
Under `Cc1ccc(Cn2c(N3CCC(C(=O)NCc4cccs4)CC3)nc3ccccc32)cc1` stands -4.981%; under `Cc1cc(=O)oc2c1ccc1oc(C(=O)c3ccccc3)c(C)c12`, 64.86%; under `COc1cccc(NC(=O)Cn2c(C)c(C#N)c3ccccc32)c1`, 14.16%.
As for `CCOc1ccc(C2N(C)c3ccccc3N2C)cc1`, the figure is -19.63%; as for `CCC(O)c1ccc(Br)cc1NC(=O)c1cccc(Cl)c1` (configuration not stated), 15.79%.
Under `Cc1cc(NC(=O)C2c3ccccc3C(=O)N(CC(C)C)C2c2cccs2)no1` (configuration not stated) stands -19.27%; under `CCCCOc1ccc(C(=O)Nc2cc(C)on2)cc1`, -8.82%.
Turning to `N=c1c2ccccc2nnn1-c1cccc(C(F)(F)F)c1`, the Inhibition was found to be 6.889%.
As for `CC(C)=CCN1CCC(C(=O)Nc2ccc(-c3nc4ccccc4[nH]3)cc2)CC1`, the figure is -41.53%.
As for `COc1ccc(C(O)(CCC(C)C)C(CN2CCOCC2)c2ccc(Cl)cc2)cc1.Cl` (configuration not stated), the figure is -51.44%; as for `CC(C)OCc1cc(CN2CCN(c3cccc(Cl)c3)CC2)c(O)c2ncccc12`, 54.97%.
Under `O=C(Nc1ccc(Br)cc1)Nc1cccc(Cl)c1` stands -51.26%.
Consider `CCOC(=O)c1cnc2ccc(CC)cc2c1O`, for which the Inhibition is listed as -16.47%.
Under `COc1cccc(Nc2nc(NCCO)c3ccccc3n2)c1.Cl` stands 65.39%.
As to `Cc1ccc(Cl)cc1N1CCN(CCCNC(=O)C2CCN(c3nc4ccccc4[nH]3)CC2)CC1`, the Inhibition is recorded as -53.53%.
On to `O=c1cc(NC2CCN(CCCc3ccccc3)CC2)c2cc(Cl)ccc2o1`, for which the Inhibition is reported as -2.261%.
As for `COc1cc2cc(C(=O)Nc3ccccc3)c(N)nc2cc1OC`, the figure is -19.13%.
As for `O=C(NC1CCN(Cc2ccccc2)CC1)c1cc(-c2ccncc2)nc2ccc(Cl)cc12`, the figure is 13.62%; as for `O=C(O)C1Cc2c([nH]c3ccccc23)C(c2ccc(Cl)cc2Cl)N1` (configuration not stated), -71.65%; as for `CC1CCCCN1CCCNC(=O)c1ccc2c(c1)sc1nc(-c3ccc(F)cc3)cn12` (configuration not stated), 7.741%.
As for `COc1ccc(NC(=O)C2c3ccccc3C(=O)N(CC(C)C)C2c2cccs2)cc1` (configuration not stated), the figure is 0.02548%.
Consider `O=C(Nc1ccc(C23CC4CC(CC(c5ccccc5)(C4)C2)C3)cc1)c1cccs1`, for which the Inhibition was -2.299%.
Under `Cc1ccc(C2CC(C(F)(F)F)n3nc(C(=O)N4CCN(C(c5ccccc5)c5ccccc5)CC4)cc3N2)cc1` (configuration not stated) stands -21.96%.
Under `CC(C)CCNCC(O)Cn1c2ccccc2c2ccccc21.Cl` (configuration not stated) stands 46.75%; under `CCOC(=O)C1CCN(C(=O)CN2C(=O)c3ccccc3C2c2c[nH]c3ccccc23)CC1` (configuration not stated), 23.12%; under `Cc1cc(Nc2ccc(Cl)cc2)n2nc(C(F)(F)F)nc2n1`, 36.64%.
As for `CC1CCN(Cc2ccc(NC(=O)c3cc4ccc5cccnc5c4[nH]3)cc2)CC1`, the figure is -17.38%; as for `COc1ccc(C(=O)Nc2nonc2-c2ccc(OC)c(OC)c2)cc1Cl`, 4.722%; as for `COc1ccc(C(=O)C(CCC(CNC(C)(C)C)C(=O)c2ccc(OC)cc2)CNC(C)(C)C)cc1` (configuration not stated), -20.25%.
For `O=C(Nc1ccc(-c2nc3ccccc3[nH]2)cc1)c1ccc(Cl)c(Cl)c1`, the Inhibition is reported as 10.57%.
Under `CC(C)(C)c1ccc(C(=O)Nc2c3c(nn2-c2cccc(Cl)c2)CSC3)cc1` stands 7.325%; under `CCN(CC)CCCNc1nc(-c2ccc(Cl)cc2)nc2ccccc12`, -30.51%.
As for `COc1ccc(-c2nonc2NC(=O)c2cccc(Cl)c2)cc1OC`, the figure is 23.52%; as for `FC(F)(F)c1cccc(Nc2nc3ccccc3nc2Nc2cccc(C(F)(F)F)c2)c1`, -14.38%.
Take `CCCc1c(C)nc2ccccc2c1O`: the Inhibition is listed as -14.82%.
Under `CCN(CC)CCNc1ccnc2cc3ccccc3cc12.O=P(O)(O)O` stands 3.908%; under `N#Cc1nc(Cc2cccc3ccccc23)oc1N1CCN(C(c2ccccc2)c2ccccc2)CC1`, -4.219%; under `Oc1ccc(C(=C(Cl)Cl)c2ccc(O)cc2)cc1`, -24.26%.
Under `Fc1ccc2[nH]c3c(NCCCN4CCOCC4)ncnc3c2c1` stands -0.2614%; under `Cc1cc(C)c2c(c1)OCN(Cc1ccccc1Cl)C2`, -66.49%; under `O=C(Nc1ccc(N2CCN(Cc3ccccc3)CC2)cc1)c1cccs1.O=C(O)C(F)(F)F`, -70.26%.
As for `CSC1=NC(=Nc2c(C)cccc2C)C2(CCC(C(C)(C)C)CC2)N1c1ccc(Cl)cc1` (configuration not stated), the figure is -57.3%.
Regarding `COc1ccc2c(c1)C1(Nc3ccccc3-c3nc4ccccc4n31)C(=O)N2` (configuration not stated), the Inhibition was -27.19%.
As for `CN(C)CCNc1cc(-c2ccccc2)nc2ccccc12`, the figure is -2.54%; as for `CCOC(=O)c1cnc2c(C)cccc2c1Nc1ccc(C(C)=O)cc1`, -10.99%; as for `Cc1sc2ncnc(Sc3nc4ccccc4[nH]3)c2c1C`, 20.44%.
On to `COc1ccc(-c2nc(NC(=O)CS(=O)(=O)c3ccc(F)cc3)sc2C)cc1`, for which the Inhibition is reported as -22.95%.
On to `CCOC(=O)C1=CN(C)C=C(C(=O)OCC)C1c1cc(Br)c(OCC)c(OC)c1`, for which the Inhibition was -2.299%.
As for `COc1ccc(Nc2nc(NCc3ccccc3)c3ccccc3n2)cc1`, the figure is 49.98%; as for `Cc1ccccc1OCCSc1nc2ccc(NC(=O)c3cccs3)cc2s1`, -27.25%; as for `OC(CNC1CCCCC1)Cn1c2ccc(I)cc2c2cc(I)ccc21` (configuration not stated), 25.2%.
On to `C=C(C)CCC(C)N1CCC(N2CCC(C(=O)NCCc3ccccc3)CC2)CC1` (configuration not stated), for which the Inhibition is on record as -27.27%.
As for `O=C(NC1CCN(Cc2ccccc2)CC1)c1cc(C(=O)NC2CCN(Cc3ccccc3)CC2)cc(C(=O)NC2CCN(Cc3ccccc3)CC2)c1`, the Inhibition turned out to be 0.9409%.
As for `CC(=O)NCCc1nc2ccccc2n1Cc1ccc(C(C)C)cc1`, the figure is 0.2505%; as for `COc1ccccc1NC1=C(N2CCCCC2)C(=O)c2ccccc2C1=O`, -35.82%.
Consider `Cc1cc(NCCN2CCCCC2)c2ccc3ccccc3c2n1`, for which the Inhibition is reported as -25.58%.
For the compound `COc1cc(SC)ccc1C(=O)N1CCCC(C)C1` (configuration not stated), the Inhibition was -12.18%.
Under `CCCCCCn1c(=N)n(CC(O)COc2cccc(C)c2)c2ccccc21.Cl` (configuration not stated) stands 6.838%; under `COc1ccc(Nc2cc(C)nc(NCc3ccccc3)n2)cc1`, -1.126%; under `OC(CNCC1CCCO1)Cn1c2ccc(Cl)cc2c2cc(Cl)ccc21` (configuration not stated), -33.95%.
Under `CCOC(=O)C1=C(C)N=c2sc(=Cc3ccccc3O)c(=O)n2C1c1ccc(OC)c2ccccc12` (configuration not stated) stands -32.82%.
As for `CN1CCN(c2nc(Nc3ccc(O)cc3)nc3ccccc23)CC1.Cl`, the figure is -22.12%; as for `COc1ccc(-c2c(C)nn3c(N)c(C#N)cnc23)cc1OC`, -20.9%.
With `Cc1cc(C=C2SC(=Nc3ccccc3)N(C3CCCC3)C2=O)c(C)n1-c1ccc(Cl)cc1`, the Inhibition is given as 0.2141%.

These data come from ChEMBL document CHEMBL3137356, “MMV Box Cryptosporidium parvum screening set”.
